Experimental data as given in patent US12215140B2, “Method of stabilizing protein contained in specimen and solution for stabilizing protein contained in specimen” (EIKEN KAGAKU KABUSHIKI KAISHA, priority 2018, dated 2025).

Tested on: hemoglobin-haptoglobin complex
Assay: Stability of hemoglobin (as hemoglobin-haptoglobin complex) in samples preserved at 37° C. in preservation solution containing 1 unit/L haptoglobin, Hb measured by latex agglutination method (Examples 1 to 7)
Set-up: species or system human
Outline: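 Latex agglutination (anti-human hemoglobin rabbit polyclonal latex) measured Hb in samples stored at 37 °C up to 21 days; values expressed as % recovery versus day 0. Preservation solution: HEPES 40 mmol/L pH 6.8, BSA 0.1%, NaN3 0.1%, haptoglobin 1 unit/L, phenylboronic acid 0–100 mmol/L, optional sugars; ~300 µg/L Hb, 0.5% feces or none.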

[1] = Feces 3, phenylboronic acid 0.5 mmol/L, 37° C., 7 days
[2] = Feces 3, phenylboronic acid 0.5 mmol/L, 37° C., 14 days
[3] = Feces 3, phenylboronic acid 0.5 mmol/L, 37° C., 21 days
[4] = Feces 3, phenylboronic acid 1 mmol/L, 37° C., 7 days
[5] = Feces 3, phenylboronic acid 1 mmol/L, 37° C., 14 days
[6] = Feces 3, phenylboronic acid 1 mmol/L, 37° C., 21 days
[7] = Feces 3, phenylboronic acid 15 mmol/L, 37° C., 0 days
[8] = Feces 3, phenylboronic acid 15 mmol/L, 37° C., 7 days
[9] = Feces 3, phenylboronic acid 15 mmol/L, 37° C., 14 days
[10] = Feces 3, phenylboronic acid 15 mmol/L, 37° C., 21 days
[11] = Feces 3, phenylboronic acid 50 mmol/L, 37° C., 0 days
[12] = Feces 3, phenylboronic acid 50 mmol/L, 37° C., 7 days
[13] = Feces 3, phenylboronic acid 50 mmol/L, 37° C., 14 days
[14] = Feces 3, phenylboronic acid 50 mmol/L, 37° C., 21 days
[15] = Feces 3, phenylboronic acid 100 mmol/L, 37° C., 0 days
[16] = Feces 3, phenylboronic acid 100 mmol/L, 37° C., 7 days
[17] = Feces 3, phenylboronic acid 100 mmol/L, 37° C., 14 days
[18] = Feces 3, phenylboronic acid 100 mmol/L, 37° C., 21 days
[19] = No feces, phenylboronic acid 0.5 mmol/L, 37° C., 7 days
[20] = No feces, phenylboronic acid 0.5 mmol/L, 37° C., 14 days
[21] = No feces, phenylboronic acid 0.5 mmol/L, 37° C., 21 days
[22] = No feces, phenylboronic acid 1 mmol/L, 37° C., 7 days
[23] = No feces, phenylboronic acid 1 mmol/L, 37° C., 14 days
[24] = No feces, phenylboronic acid 1 mmol/L, 37° C., 21 days
[25] = No feces, phenylboronic acid 15 mmol/L, 37° C., 0 days
[26] = No feces, phenylboronic acid 15 mmol/L, 37° C., 7 days
[27] = No feces, phenylboronic acid 15 mmol/L, 37° C., 14 days
[28] = No feces, phenylboronic acid 15 mmol/L, 37° C., 21 days
[29] = No feces, phenylboronic acid 50 mmol/L, 37° C., 0 days
[30] = No feces, phenylboronic acid 50 mmol/L, 37° C., 7 days
[31] = No feces, phenylboronic acid 50 mmol/L, 37° C., 14 days
[32] = No feces, phenylboronic acid 50 mmol/L, 37° C., 21 days
[33] = No feces, phenylboronic acid 100 mmol/L, 37° C., 0 days
[34] = No feces, phenylboronic acid 100 mmol/L, 37° C., 7 days
[35] = No feces, phenylboronic acid 100 mmol/L, 37° C., 14 days
[36] = No feces, phenylboronic acid 100 mmol/L, 37° C., 21 days

OB(O)c1ccccc1 [phenylboronic acid]
Recovery ratio with respect to Hb concentration after 0 days (Feces 3, phenylboronic acid 0.5 mmol/L, 37° C., 0 days): 100%
Hb concentration [1]: 133 µg/L
Recovery ratio with respect to Hb concentration after 0 days [1]: 47%
Hb concentration [2]: 104 µg/L
Recovery ratio with respect to Hb concentration after 0 days [2]: 37%
Hb concentration [3]: 93 µg/L
Recovery ratio with respect to Hb concentration after 0 days [3]: 33%
Recovery ratio with respect to Hb concentration after 0 days (Feces 3, phenylboronic acid 1 mmol/L, 37° C., 0 days): 100%
Hb concentration [4]: 159 µg/L
Recovery ratio with respect to Hb concentration after 0 days [4]: 57%
Hb concentration [5]: 131 µg/L
Recovery ratio with respect to Hb concentration after 0 days [5]: 47%
Hb concentration [6]: 115 µg/L
Recovery ratio with respect to Hb concentration after 0 days [6]: 41%
Hb concentration (Feces 3, phenylboronic acid 15 mmol/L, no sugar, 0 days at 37° C.): 288 µg/L
Hb concentration (Feces 3, phenylboronic acid 15 mmol/L, no sugar, 7 days at 37° C.): 224 µg/L
Hb concentration (Feces 3, phenylboronic acid 15 mmol/L, no sugar, 14 days at 37° C.): 200 µg/L
Hb concentration (Feces 3, phenylboronic acid 15 mmol/L, no sugar, 21 days at 37° C.): 185 µg/L
Hb concentration [7]: 288 µg/L
Recovery ratio with respect to Hb concentration after 0 days [7]: 100%
Hb concentration [8]: 224 µg/L
Recovery ratio with respect to Hb concentration after 0 days [8]: 78%
Hb concentration [9]: 200 µg/L
Recovery ratio with respect to Hb concentration after 0 days [9]: 69%
Hb concentration [10]: 185 µg/L
Recovery ratio with respect to Hb concentration after 0 days [10]: 64%
Hb concentration [11]: 274 µg/L
Recovery ratio with respect to Hb concentration after 0 days [11]: 100%
Hb concentration [12]: 204 µg/L
Recovery ratio with respect to Hb concentration after 0 days [12]: 74%
Hb concentration [13]: 176 µg/L
Recovery ratio with respect to Hb concentration after 0 days [13]: 64%
Hb concentration [14]: 158 µg/L
Recovery ratio with respect to Hb concentration after 0 days [14]: 58%
Hb concentration [15]: 247 µg/L
Recovery ratio with respect to Hb concentration after 0 days [15]: 100%
Hb concentration [16]: 156 µg/L
Recovery ratio with respect to Hb concentration after 0 days [16]: 63%
Hb concentration [17]: 88 µg/L
Recovery ratio with respect to Hb concentration after 0 days [17]: 36%
Hb concentration [18]: 53 µg/L
Recovery ratio with respect to Hb concentration after 0 days [18]: 21%
Recovery ratio with respect to Hb concentration after 0 days (No feces, phenylboronic acid 0.5 mmol/L, 37° C., 0 days): 100%
Hb concentration [19]: 248 µg/L
Recovery ratio with respect to Hb concentration after 0 days [19]: 96%
Hb concentration [20]: 243 µg/L
Recovery ratio with respect to Hb concentration after 0 days [20]: 95%
Hb concentration [21]: 246 µg/L
Recovery ratio with respect to Hb concentration after 0 days [21]: 96%
Recovery ratio with respect to Hb concentration after 0 days (No feces, phenylboronic acid 1 mmol/L, 37° C., 0 days): 100%
Hb concentration [22]: 244 µg/L
Recovery ratio with respect to Hb concentration after 0 days [22]: 92%
Hb concentration [23]: 241 µg/L
Recovery ratio with respect to Hb concentration after 0 days [23]: 91%
Hb concentration [24]: 244 µg/L
Recovery ratio with respect to Hb concentration after 0 days [24]: 92%
Hb concentration (No feces, phenylboronic acid 15 mmol/L, no sugar, 0 days at 37° C.): 286 µg/L
Hb concentration (No feces, phenylboronic acid 15 mmol/L, no sugar, 7 days at 37° C.): 262 µg/L
Hb concentration (No feces, phenylboronic acid 15 mmol/L, no sugar, 14 days at 37° C.): 253 µg/L
Hb concentration [25]: 286 µg/L
Recovery ratio with respect to Hb concentration after 0 days [25]: 100%
Hb concentration [26]: 262 µg/L
Recovery ratio with respect to Hb concentration after 0 days [26]: 92%
Hb concentration [27]: 253 µg/L
Recovery ratio with respect to Hb concentration after 0 days [27]: 88%
Hb concentration [28]: 264 µg/L
Recovery ratio with respect to Hb concentration after 0 days [28]: 92%
Hb concentration [29]: 260 µg/L
Recovery ratio with respect to Hb concentration after 0 days [29]: 100%
Hb concentration [30]: 242 µg/L
Recovery ratio with respect to Hb concentration after 0 days [30]: 93%
Hb concentration [31]: 228 µg/L
Recovery ratio with respect to Hb concentration after 0 days [31]: 88%
Hb concentration [32]: 235 µg/L
Recovery ratio with respect to Hb concentration after 0 days [32]: 90%
Hb concentration [33]: 239 µg/L
Recovery ratio with respect to Hb concentration after 0 days [33]: 100%
Hb concentration [34]: 198 µg/L
Recovery ratio with respect to Hb concentration after 0 days [34]: 83%
Hb concentration [35]: 183 µg/L
Recovery ratio with respect to Hb concentration after 0 days [35]: 77%
Hb concentration [36]: 178 µg/L
Recovery ratio with respect to Hb concentration after 0 days [36]: 74%
apparent recovery ratio (addition of 50 mmol/L or more phenylboronic acid): decreased
decrease in the apparent recovery ratios (phenylboronic acid 50 mmol/L in preservation solutions to which a sugar (100 mmol/L) was added): not observed
phenylboronic acid concentration at which the recovery ratio of hemoglobin reached the maximum (samples containing feces, 37° C.): 15 mmol/L
improvement of recovery ratio by addition of phenylboronic acid (samples containing no fecal specimens): not observed
